The values below come from US11834460B2, “Imide-based modulators of proteolysis and associated methods of use” (YALE UNIVERSITY, priority 2018, dated 2023).

Each structure is given as a SMILES string. Where a SMILES comes first, the peptide text is derived from it. The star is where a group is joined. Cbz = O=C(OCc1ccccc1)*

One assay has as its target T1, BRD4 (Homo sapiens, UniProt O60885).
T1 construct: endogenous in cells; host or cells: NAMALWA, Ramos, CA-46, DAUDI
Put plainly: Western blot analysis of BRD4 in BL cell lines. To be noted: inhibitor 5 μM with A825 10 nM or 100 nM; overnight; NAMALWA cells. It is filed as cell-based. The procedure:
Cultured cells were collected in lysis buffer containing 40 mM HEPES (pH 7.4), 140 mM NaCl, 2.5 mM EDTA, 1% NP-40, 0.1% SDS and protease inhibitor cocktail. After 10 minutes of centrifugation (14000 rpm), supernatant was collected for protein concentration determination by BCA method and subjected for immunoblotting by standard protocol. Western blot results were visualized using Bio-Rad Clarity ECL Western Blotting Substrate on Bio-Rad ChemiDoc™ MP imaging system.
A separate set of cells were treated in the same manner, except that DMSO was used in place of the inhibitor. […] Following treatment, cell lysates were collected and analyzed by immunoblot for BRD4 and Actin.
Specifically, NAMALWA and Ramos cells were treated with 300 nM of each inhibitor for 0 hr, 0.5 hr, 1.0 hr, 2.0 hr, 4.0 hr, 7.0 hr, 24 hr, and 48.0 hr. Following treatment, cell lysates were collected and analyzed by immunoblot for BRD4 and Actin.
(§1) Following treatment, cell lysates were collected and analyzed by immunoblot for BRD4 and Actin.
as §1, §1, §1
Cells were re-seeded in fresh medium and incubated without any compound for 0 hr, 2.0 hr, 4.0 hr, 6.0 hr, and 24.0 hr. In a parallel control experiment, cells were treated in the same manner, except DMSO was used in place of inhibitor. Lysates were collected and analyzed by immunoblot for BRD4, c-Myc, and Actin.
On the technique in general: In western blotting, separated proteins are transferred to a membrane and probed.
Take `CC(C)C[C@H](NC(=O)[C@H](CCc1ccccc1)NC(=O)CN1CCOCC1)C(=O)N[C@@H](Cc1ccccc1)C(=O)N[C@@H](CC(C)C)C(=O)[C@@]1(C)CO1` [Carfizomib]: the “effect of proteasome inhibitor on A825-induced BRD4 degradation” value was “completely prevented BRD4 degradation”.

On to `CC(C)C[C@@H](C=O)NC(=O)[C@H](CC(C)C)NC(=O)[C@H](CC(C)C)NC(=O)OCc1ccccc1` [MG132] (Cbz-Leu-Leu-Leu-aldehyde), for which the “effect of proteasome inhibitor on A825-induced BRD4 degradation” value is on record as “completely prevented BRD4 degradation”.

A further assay concerns the target T2, androgen receptor (AR) (Homo sapiens, UniProt P10275).
T2 construct: detects endogenous levels of total androgen receptor protein; endogenous in cells; host or cells: VCaP
T2 sequence (P10275 1-920): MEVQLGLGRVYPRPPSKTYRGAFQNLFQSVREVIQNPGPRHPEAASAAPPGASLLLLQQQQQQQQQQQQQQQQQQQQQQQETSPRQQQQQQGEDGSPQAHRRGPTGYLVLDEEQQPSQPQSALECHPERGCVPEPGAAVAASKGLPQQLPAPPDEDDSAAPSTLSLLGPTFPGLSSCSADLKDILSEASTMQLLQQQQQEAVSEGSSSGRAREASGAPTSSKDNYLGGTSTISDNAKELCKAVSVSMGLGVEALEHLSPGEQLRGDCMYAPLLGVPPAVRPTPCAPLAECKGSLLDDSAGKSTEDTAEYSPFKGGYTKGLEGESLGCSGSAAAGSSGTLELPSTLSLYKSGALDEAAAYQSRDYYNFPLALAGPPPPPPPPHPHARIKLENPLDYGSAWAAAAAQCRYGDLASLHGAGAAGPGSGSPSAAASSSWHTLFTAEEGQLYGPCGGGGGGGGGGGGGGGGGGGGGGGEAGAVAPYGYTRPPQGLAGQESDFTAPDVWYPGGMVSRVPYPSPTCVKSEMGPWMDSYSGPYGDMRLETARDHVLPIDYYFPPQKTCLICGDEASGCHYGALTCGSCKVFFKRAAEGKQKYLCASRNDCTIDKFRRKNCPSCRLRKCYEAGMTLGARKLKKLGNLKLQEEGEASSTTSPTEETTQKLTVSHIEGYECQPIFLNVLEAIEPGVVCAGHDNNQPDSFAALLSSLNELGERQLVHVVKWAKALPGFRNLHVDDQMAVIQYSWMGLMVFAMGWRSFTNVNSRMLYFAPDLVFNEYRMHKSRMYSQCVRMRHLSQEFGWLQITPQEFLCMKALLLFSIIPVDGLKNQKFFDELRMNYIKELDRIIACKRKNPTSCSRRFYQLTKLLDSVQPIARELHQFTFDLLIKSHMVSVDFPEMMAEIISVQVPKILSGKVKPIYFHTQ
The assay can be described thus: AR ELISA protocol, degradation in VCaP cells. The format is cell-based. Details: Dmax: dose or concentration left out as unconfirmed. To be noted: 1 uM, 16 h. The protocol: In each bioassay, cells were treated with varying amounts of compounds encompassed by the present disclosure, as shown in Table 1. The degradation of the following proteins were evaluated in this study: TANK-binding kinase 1 (TBK1), estrogen receptor α (ERα), bromodomain-containing protein 4 (BRD4), androgen receptor (AR), and c-Myc.
VCaP cells were purchased from ATCC and cultured in Dulbecco's Modified Eagle's Medium (ATCC), supplemented with 10% FBS (ATCC) and Penicillin/Streptomycin (Life Technologies). DMSO control and compound treatments (0.0001 μM-1 μM) were performed in 96-well plates for 16 h. Cells were harvested, and lysed with Cell Lysis Buffer (Catalog #9803) (20 mM Tris-HCL (pH 7.5), 150 mM NaCl, 1 mM Na2EDTA, 1 mM EGTA, 1% Triton, 2.5 mM sodium pyrophosphate, 1 mM B-glycerophosphate, 1 mM Na3VO4, 1 ug/ml leupeptin. Lysates were clarified at 16,000 g for 10 minutes, and loaded into the PathScan AR ELISA (Cell Signaling Catalog #12850). The PathScan® Total Androgen Receptor Sandwich ELISA Kit is a solid phase sandwich enzyme-linked immunosorbent assay (ELISA) that detects endogenous levels of total androgen receptor protein. An Androgen Receptor Rabbit mAb has been coated onto the microwells. After incubation with cell lysates, androgen receptor protein is captured by the coated antibody. Following extensive washing, an Androgen Receptor Mouse Detection mAb is added to detect the captured androgen receptor protein. Anti-mouse IgG, HRP-linked Antibody is then used to recognize the bound detection antibody. HRP substrate, TMB, is added to develop color. The magnitude of absorbance for the developed color is proportional to the quantity of total androgen receptor protein. Antibodies in kit are custom formulations specific to kit.
For orientation: An ELISA detects its analyte on a solid surface through an enzyme-linked reagent.
On to `CC1(C)C(=O)N(c2ccc(C#N)c(C(F)(F)F)c2)C(=S)N1c1ccc(OCCCOCCCOCCNc2cccc3c2C(=O)N(C2CCC(=O)NC2=O)C3=O)cc1` (stereo not drawn) [Compound 2], for which the maximal degradation (Dmax) – broadly, the greatest extent of degradation seen – at 1 µM lay in the range of 31 to 50%.

`CC1(C)C(=O)N(c2ccc(C#N)c(C(F)(F)F)c2)C(=S)N1c1ccc(OCCOCCOCCOCCNc2cccc3c2C(=O)N(C2CCC(=O)NC2=O)C3=O)cc1` (stereo not drawn) [Compound 3, 4-(3-(4-(2-(2-(2-(2-((2-(2,6-dioxopiperidin-3-yl)-1,3-dioxoisoindolin-4-yl)amino)ethoxy)ethoxy)ethoxy)ethoxy)phenyl)-4,4-dimethyl-5-oxo-2-thioxo-imidazolidin-1-yl)-2-(trifluoromethyl) benzonitrile] gave a Dmax at 1 µM of 31 to 50%.

`CC1(C)C(=O)N(c2ccc(C#N)c(C(F)(F)F)c2)C(=S)N1c1ccc(OCCOCCOCCOCCNc2cccc3c2C(=O)N([C@H]2CCC(=O)NC2=O)C3=O)cc1` [Compound 4, (S)-4-(3-(4-(2-(2-(2-(2-((2-(2,6-dioxopiperidin-3-yl)-1,3-dioxoisoindolin-4-yl)amino)ethoxy)ethoxy)ethoxy)ethoxy)phenyl)-4,4-dimethyl-5-oxo-2-thioxoimidazolidin-1-yl)-2-(trifluoromethyl) benzonitrile] had a Dmax at 1 µM of 31 to 50%.

`CC1(C)C(=O)N(c2ccc(C#N)c(C(F)(F)F)c2)C(=S)N1c1ccc(OCCOCCOCCOCCNc2cccc3c2C(=O)N([C@@H]2CCC(=O)NC2=O)C3=O)cc1` [Compound 5, (R)-4-(3-(4-(2-(2-(2-(2-((2-(2,6-dioxopiperidin-3-yl)-1,3-dioxoisoindolin-4-yl)amino)ethoxy)ethoxy)ethoxy)ethoxy)phenyl)-4,4-dimethyl-5-oxo-2-thioxoimidazolidin-1-yl)-2-(trifluoromethyl) benzonitrile] returned a Dmax at 1 µM of 31 to 50%.

`CC1(C)C(=O)N(c2ccc(C#N)c(C(F)(F)F)c2)C(=S)N1c1ccc(OCCOCCOCCOCCOCCOCCNc2cccc3c2C(=O)N(C2CCC(=O)NC2=O)C3=O)cc1` (stereo not drawn) [Compound 6, 4-(3-(4-((17-((2-(2,6-dioxopiperidin-3-yl)-1,3-dioxoisoindolin-4-yl)amino)-3,6,9,12,15-pentaoxa-heptadecyl)oxy)phenyl)-4,4-dimethyl-5-oxo-2-thioxoimidazolidin-1-yl)-2-(trifluoromethyl) benzonitrile] had a Dmax at 1 µM of 10 to 30%.

Compound `CC1(C)C(=O)N(c2ccc(C#N)c(C(F)(F)F)c2)C(=S)N1c1ccc(OCCOCCNc2cccc3c2C(=O)N(C2CCC(=O)NC2=O)C3=O)cc1` (stereo not drawn) [Compound 7, 4-(3-(4-(2-(2-((2-(2,6-dioxopiperidin-3-yl)-1,3-dioxoisoindolin-4-yl)amino)ethoxy)ethoxy)phenyl)-4,4-dimethyl-5-oxo-2-thioxoimidazolidin-1-yl)-2-(trifluoromethyl) benzonitrile] yielded a Dmax at 1 µM of 10 to 30%.

In the case of `CC1(C)C(=O)N(c2ccc(C#N)c(C(F)(F)F)c2)C(=S)N1c1ccc(OCCOCCOCCNc2cccc3c2C(=O)N(C2CCC(=O)NC2=O)C3=O)cc1` (stereo not drawn) [Compound 8, 4-(3-(4-(2-(2-(2-((2-(2,6-dioxopiperidin-3-yl)-1,3-dioxoisoindolin-4-yl)amino)ethoxy)ethoxy)ethoxy)phenyl)-4,4-dimethyl-5-oxo-2-thioxoimidazolidin-1-yl)-2-(trifluoromethyl) benzonitrile], the Dmax at 1 µM was in the range of 10 to 30%.

Compound `CC1(C)C(=O)N(c2ccc(C#N)c(C(F)(F)F)c2)C(=S)N1c1ccc(OCCCOCCOCCNc2cccc3c2C(=O)N(C2CCC(=O)NC2=O)C3=O)cc1` (stereo not drawn) [Compound 9, 4-(3-(4-(3-(2-(2-((2-(2,6-dioxopiperidin-3-yl)-1,3-dioxoisoindolin-4-yl)amino)ethoxy)ethoxy)propoxy)phenyl)-4,4-dimethyl-5-oxo-2-thioxoimidazolidin-1-yl)-2-(trifluoromethyl) benzonitrile] had a Dmax at 1 µM of 10 to 30%.

On to `CC1(C)[C@H](NC(=O)c2ccc(OCCCCCOCCCNc3cccc4c3C(=O)N(C3CCC(=O)NC3=O)C4=O)cc2)C(C)(C)[C@H]1Oc1ccc(C#N)c(Cl)c1` (stereo partly drawn) [Compound 11], for which the maximal degradation (Dmax) at 1 µM was more than 50%.

In turn, `CC1(C)C(=O)N(c2ccc(C#N)c(C(F)(F)F)c2)C(=S)N1c1ccc(-c2ccc(OCCCCCNc3cccc4c3C(=O)N(C3CCC(=O)NC3=O)C4=O)cc2)cc1` (stereo not drawn) [Compound 13, 4-(3-(4-(4-((5-((2-(2,6-dioxopiperidin-3-yl)-1,3-dioxo-2,3-dihydro-1H-isoindol-4-yl)amino)pentyl)oxy)phenyl)phenyl)-4,4-dimethyl-5-oxo-2-sulfanylidene-imidazolidin-1-yl)-2-(trifluoromethyl) benzonitrile] yielded a Dmax at 1 µM of more than 50%.

The same assay, now with this note: 16 h.
`CC1(C)C(=O)N(c2ccc(C#N)c(C(F)(F)F)c2)C(=S)N1c1ccc(OCCCOCCOCCOCCNc2cccc3c2C(=O)N(C2CCC(=O)NC2=O)C3=O)cc1` (stereo not drawn) [Compound 1, 4-(3-(4-(3-(2-(2-(2-((2-(2,6-dioxopiperidin-3-yl)-1,3-dioxoisoindolin-4-yl)amino)ethoxy)ethoxy)ethoxy)propoxy)phenyl)-4,4-dimethyl-5-oxo-2-thioxoimidazolidin-1-yl)-2-(trifluoromethyl) benzonitrile] showed a Dmax of 10 to 30%.

`CC1(C)C(=O)N(c2ccc(C#N)c(C(F)(F)F)c2)C(=S)N1c1ccc(OCCCCOCCOCCOCCNc2cccc3c2C(=O)N(C2CCC(=O)NC2=O)C3=O)cc1` (stereo not drawn) [Compound 10]: the Dmax fell in the range of 31 to 50%.

Take `CC1(C)C(=O)N(c2ccc(C#N)c(C(F)(F)F)c2)C(=S)N1c1ccc(OCCCOCCOCCOCCNc2cccc3c2C(=O)N(C2(C)CCC(=O)NC2=O)C3=O)cc1` (stereo not drawn) [Compound 12, 4-(4,4-dimethyl-3-(4-((1-(2-(3-methyl-2,6-dioxopiperidin-3-yl)-1,3-dioxo-2,3-dihydro-1H-isoindol-4-yl)-4,7,10-trioxa-1-azatridecan-13-yl)oxy)phenyl)-5-oxo-2-sulfanylidene-imidazolidin-1-yl)-2-(trifluoromethyl) benzonitrile]: the Dmax lay within 10 to 30%.
